Assay results: patent publication US9707305B2, “Formulas for diagnosing and treating hormone-dependent cancers and cancers of the organs responsible for steroid hormone synthesis” (Commissariat à l'énergie atomique et aux énergies …, priority 2011, dated 2017)

Experiment: Biodistribution of the nano-emulsion of Example 1.1 (radioactivity and fluorescence per organ)
Format: in vivo
Experimental: In the following examples, the radioactivity was counted with the TRiCarb Counter (Ref: Packard, Liquid Scintillation Analyzers; Models 2200CA).
Fluobeam 700 (Fluoptics) is the apparatus with which the whole of the organs from the biodistribution were analyzed in fluorescence as well as the one with which the biodistribution kinetics of the nano-emulsions were established in vivo. This imaging system allows viewing of the fluorescence in spectral bands from 700 to 850 nm for a 650 nm excitation. The apparatus consists of an electric case containing the laser of class 3B, its power supply and an optical head containing the CCD camera.
The nano-emulsions of Example 1 were injected into FVB female and male mice. As a comparison, a mixture of three tracers ([3H]CHE, [14C]CO and DiD) (not formulated as a nano-emulsion) was injected in order to observe the distribution of the tracers in the absence of droplets being used as a distribution carrier.
Tables 6 to 14 provide the biodistribution results of each tracer ([3H]CHE, [14C]CO and DiD) expressed as a percentage of the dose injected per gram of tissue (or [3H]CHE and [14C]CO) or as fluorescence intensity (for DiD) depending on the organ of the mouse, 15 minutes (Table 6), 2 hours (Table 7), 4 hours (Table 8), 6 hours (Table 9), 16 hours (Table 10), 24 hours (Table 11), 72 hours (Table 12), 120 hours (Table 13) and 168 hours (Table 14), after injection into an FVB female mouse of the nano-emulsion of Example 1.1. (nano-emulsion according to the invention comprising the three tracers ([3H]CHE, [14C]CO and DiD).

[1] = 2 h after injection of nano-emulsion of Example 1.1, FVB female mouse
[2] = 4 h after injection of nano-emulsion of Example 1.1, FVB female mouse
[3] = 16 h (Table 9 head) after injection of nano-emulsion of Example 1.1, FVB female mouse
[4] = 24 h (Table 10 head) after injection of nano-emulsion of Example 1.1, FVB female mouse
[5] = 48 h (Table 11 head) after injection of nano-emulsion of Example 1.1, FVB female mouse
[6] = 72 h after injection of nano-emulsion of Example 1.1, FVB female mouse
[7] = 120 h after injection of nano-emulsion of Example 1.1, FVB female mouse

In the case of `CCCCCCCC/C=C\CCCCCCC[14C](=O)O[C@H]1CC[C@@]2(C)C(=CC[C@H]3[C@@H]4CC[C@H]([C@H](C)CCCC(C)C)[C@@]4(C)CC[C@@H]32)C1` [[14C]CO, cholesteryl oleate], the “biodistribution, Lung (MEAN)” value [1] is reported as 4.42 % of injected dose per gram of, the “biodistribution, Muscle (MEAN)” value [1] is reported as 0.48 % of injected dose per gram of and the “biodistribution, Ovary (MEAN)” value [1] is reported as 22.72 % of injected dose per gram of. For the same compound, the “biodistribution, Pancreas (MEAN)” value [1] was 1.68 % of injected dose per gram of, the “biodistribution, Salivary glands (MEAN)” value [1] was 1.74 % of injected dose per gram of and the “biodistribution, Spleen (MEAN)” value [1] was 2.87 % of injected dose per gram of. The “biodistribution, Uterus (MEAN)” value [1] was 2.21 % of injected dose per gram of, the “biodistribution, Adrenal glands (MEAN)” value [2] was 21.37 % of injected dose per gram of and the “biodistribution, Brain (MEAN)” value [2] was 0.23 % of injected dose per gram of. For the same compound, the “biodistribution, Fat (MEAN)” value [2] was 1.46 % of injected dose per gram of, the “biodistribution, Heart (MEAN)” value [2] was 3.75 % of injected dose per gram of and the “biodistribution, Intestine (MEAN)” value [2] was 1.80 % of injected dose per gram of. The “biodistribution, Kidney (MEAN)” value [2] was 2.27 % of injected dose per gram of, the “biodistribution, Liver (MEAN)” value [2] was 13.69 % of injected dose per gram of and the “biodistribution, Lungs (MEAN)” value [2] was 3.09 % of injected dose per gram of. For the same compound, the “biodistribution, Muscle (MEAN)” value [2] was 0.38 % of injected dose per gram of, the “biodistribution, Ovary (MEAN)” value [2] was 25.14 % of injected dose per gram of and the “biodistribution, Pancreas (MEAN)” value [2] was 1.17 % of injected dose per gram of. For the same compound, the “biodistribution, Salivary glands (MEAN)” value [2] was 1.47 % of injected dose per gram of, the “biodistribution, Spleen (MEAN)” value [2] was 1.97 % of injected dose per gram of and the “biodistribution, Uterus (MEAN)” value [2] was 1.39 % of injected dose per gram of. The “biodistribution, Adrenal glands (MEAN)” value [3] was 30.64 % of injected dose per gram of, the “biodistribution, Brain (MEAN)” value [3] was 0.13 % of injected dose per gram of and the “biodistribution, Fat (MEAN)” value [3] was 8.06 % of injected dose per gram of. For the same compound, the “biodistribution, Heart (MEAN)” value [3] was 2.00 % of injected dose per gram of, the “biodistribution, Intestine (MEAN)” value [3] was 2.53 % of injected dose per gram of and the “biodistribution, Kidney (MEAN)” value [3] was 1.75 % of injected dose per gram of. The “biodistribution, Liver (MEAN)” value [3] was 8.68 % of injected dose per gram of, the “biodistribution, Lungs (MEAN)” value [3] was 2.80 % of injected dose per gram of and the “biodistribution, Muscle (MEAN)” value [3] was 1.59 % of injected dose per gram of. The “biodistribution, Ovary (MEAN)” value [3] was 21.45 % of injected dose per gram of, the “biodistribution, Pancreas (MEAN)” value [3] was 1.19 % of injected dose per gram of and the “biodistribution, Salivary glands (MEAN)” value [3] was 2.02 % of injected dose per gram of. For the same compound, the “biodistribution, Spleen (MEAN)” value [3] was 1.89 % of injected dose per gram of, the “biodistribution, Uterus (MEAN)” value [3] was 2.76 % of injected dose per gram of and the “biodistribution, Adrenal glands (MEAN)” value [4] was 13.05 % of injected dose per gram of. For the same compound, the “biodistribution, Brain (MEAN)” value [4] was 0.11 % of injected dose per gram of, the “biodistribution, Fat (MEAN)” value [4] was 2.28 % of injected dose per gram of and the “biodistribution, Heart (MEAN)” value [4] was 1.31 % of injected dose per gram of. The “biodistribution, Intestine (MEAN)” value [4] was 1.22 % of injected dose per gram of, the “biodistribution, Kidney (MEAN)” value [4] was 1.03 % of injected dose per gram of and the “biodistribution, Liver (MEAN)” value [4] was 5.39 % of injected dose per gram of. The “biodistribution, Lung (MEAN)” value [4] was 1.30 % of injected dose per gram of, the “biodistribution, Muscle (MEAN)” value [4] was 1.01 % of injected dose per gram of and the “biodistribution, Ovary (MEAN)” value [4] was 9.58 % of injected dose per gram of. The “biodistribution, Pancreas (MEAN)” value [4] was 0.67 % of injected dose per gram of, the “biodistribution, Salivary glands (MEAN)” value [4] was 1.76 % of injected dose per gram of and the “biodistribution, Spleen (MEAN)” value [4] was 1.10 % of injected dose per gram of. The “biodistribution, Uterus (MEAN)” value [4] was 0.96 % of injected dose per gram of, the “biodistribution, Adrenal glands (MEAN)” value [5] was 10.83 % of injected dose per gram of and the “biodistribution, Brain (MEAN)” value [5] was 0.11 % of injected dose per gram of. The “biodistribution, Fat (MEAN)” value [5] was 3.46 % of injected dose per gram of, the “biodistribution, Heart (MEAN)” value [5] was 0.87 % of injected dose per gram of and the “biodistribution, Intestine (MEAN)” value [5] was 1.01 % of injected dose per gram of. The “biodistribution, Kidney (MEAN)” value [5] was 0.77 % of injected dose per gram of, the “biodistribution, Liver (MEAN)” value [5] was 1.53 % of injected dose per gram of and the “biodistribution, Lungs (MEAN)” value [5] was 1.28 % of injected dose per gram of. The “biodistribution, Muscle (MEAN)” value [5] was 0.34 % of injected dose per gram of, the “biodistribution, Ovary (MEAN)” value [5] was 6.46 % of injected dose per gram of and the “biodistribution, Pancreas (MEAN)” value [5] was 0.70 % of injected dose per gram of. The “biodistribution, Salivary glands (MEAN)” value [5] was 1.20 % of injected dose per gram of, the “biodistribution, Spleen (MEAN)” value [5] was 1.03 % of injected dose per gram of and the “biodistribution, Uterus (MEAN)” value [5] was 1.24 % of injected dose per gram of. The “biodistribution, Adrenal glands (MEAN)” value [6] was 9.36 % of injected dose per gram of, the “biodistribution, Brain (MEAN)” value [6] was 0.10 % of injected dose per gram of and the “biodistribution, Fat (MEAN)” value [6] was 5.01 % of injected dose per gram of. The “biodistribution, Heart (MEAN)” value [6] was 0.64 % of injected dose per gram of, the “biodistribution, Intestine (MEAN)” value [6] was 0.62 % of injected dose per gram of and the “biodistribution, Kidney (MEAN)” value [6] was 0.66 % of injected dose per gram of. The “biodistribution, Liver (MEAN)” value [6] was 0.75 % of injected dose per gram of, the “biodistribution, Lungs (MEAN)” value [6] was 0.88 % of injected dose per gram of and the “biodistribution, Muscle (MEAN)” value [6] was 0.28 % of injected dose per gram of. The “biodistribution, Ovary (MEAN)” value [6] was 3.04 % of injected dose per gram of, the “biodistribution, Pancreas (MEAN)” value [6] was 0.50 % of injected dose per gram of and the “biodistribution, Salivary glands (MEAN)” value [6] was 1.16 % of injected dose per gram of. For the same compound, the “biodistribution, Spleen (MEAN)” value [6] was 0.75 % of injected dose per gram of, the “biodistribution, Uterus (MEAN)” value [6] was 1.00 % of injected dose per gram of and the “biodistribution, Fat (MEAN)” value [7] was 2.42 % of injected dose per gram of. For the same compound, the “biodistribution, Kidney (MEAN)” value [7] was 0.40 % of injected dose per gram of.
